“And” between values parts separate entries of the source, which are not always exact repeats. Equal entries are not always repeated.
Test: contact angle measurement (wettability)
Format: physicochemical
Conditions: for Contact Angle: water, n = 2; for surface hydrophobicity: critical angle around 50°
Experimental: The contact angle instrument was EasyDrop DSA15E (Krüss, Hamburg, Germany). The syringe was a NE44, with a needle diameter of 0.5 mm (Krüss, Hamburg, Germany). The standards (Krüss, Hamburg, Germany) were CP24 20007107, contact angle Gauge#4=30.00°±0.3, Gauge#5=60.00°±0.3, Gauge#6=120.00°±0.3.
The powder was pressed (approx 50 mg powder, 3 tons, 2 min) in tablets and analyzed by contact angle measuremnt. The angle between the solid and the liquid is measured after 0 and up to 60 seconds using water.
All determinations used the above method, and the limit for the standards measurements are well within the given limits.

Row | Structure (SMILES) | Contact Angle (0 sec) | Contact Angle (30 sec) | Contact Angle (60 sec) | surface hydrophobicity
1 | CNc1cc2[nH]c(=O)n(-c3ccc(NC(=O)[N-]S(=O)(=O)c4ccc(Cl)s4)cc3)c(=O)c2cc1F.[K+] [A] | 78.8 ° | 53.3 ° | 51.0 ° | hydrophobic
2 | CNc1cc2[nH]c(=O)n(-c3ccc(NC(=O)NS(=O)(=O)c4ccc(Cl)s4)cc3)c(=O)c2cc1F [Free acid, [4-(6-fluoro-7-methylamino-2,4-dioxo-1,4-dihydro-2H-quinazolin-3-yl)-phenyl]-5-chloro-thiophen-2-yl-sulfonylurea] | 65.9 ° | 60.8 ° | 60.1 ° | 
3 | CNc1cc2[nH]c(=O)n(-c3ccc(NC(=O)[N-]S(=O)(=O)c4ccc(Cl)s4)cc3)c(=O)c2cc1F.[K+] [B] | 72.4 ° and 79.7 ° | 54.6 ° and 55.2 ° | 53.5 ° and 52.8 ° | hydrophobic

Source: patent US20130165459A1, “PHARMACEUTICAL COMPOSITION AND DOSAGE FORMS OF ELINOGREL AND METHODS OF USE THEREOF” (NORVARTIS PHARMA AG, priority 2010, published 2013)
